Experimental data as given in patent publication US4639437A, “Kit or device and method for administering gangliosides and derivatives thereof by inhalation and pharmaceutical compositions suitable therefor” (Fidia, S.p.A., priority 1984, dated 1987).
Where two headings read alike, the source gives them in different places.

Key:
[1] = parameters: species or system male Sprague Dawley rats; conditions: rat, in vivo, 0.25 mg/kg, 300 min
From the text: (§1) Two animal species were used, i.e., rats and rabbits.
(§2) Monosialotetrahexosylganglioside GM1 labeled on the sphingosine moiety according to the method of Tettamanti et al. (in "Gangliosides in Neurological and Neuromuscular Function, Development and Repair" Eds. M. M. Rapport, A. Gorio, Raven Press. (N.Y.) 1981, p. 225-240) was used as a representative ganglioside molecule.
(§3) The ganglioside mixture used was similar to the natural mixture that is obtained by extraction and purification from bovine cerebral cortex. The mixture was made up by compounding the single ganglioside fractions in the following percent proportions:
(§4) The monosialotetrahexosylganglioside GM1 contained a ^3 H-label on sphingosine as specified under item (a) as a tracer for the mixture.
(§5) Labeled inner ester derivative of monosialoganglioside was obtained from monosialoganglioside labeled on the sphingosine moiety according to the method cited under item (a). The inner esterification procedure according to the method described in applicant's co-pending U.S. application Ser. No. 290,106, filed on Aug. 4, 1981, was used for this labeled ganglioside to obtain the labeled inner ester derivative. […]
(§6) After treatment the animals were housed in metabolic cages. […] The total radioactivity of the samples was counted by means of a Tricarb scintillator (Packard). […]

[2] = parameters: species or system male Sprague Dawley rats; conditions: rat, in vivo, 0.25 mg/kg, 300 min; remark: listed apart in the source
From the text: as §1, §2, §3, §4
(§7) Labeled inner ester derivative of monosialoganglioside was obtained from monosialoganglioside labeled on the sphingosine moiety according to the method cited under item (a). The inner esterification procedure according to the method described in applicant's co-pending U.S. application Ser. No. 290,106, filed on Aug. […]
After treatment the animals were housed in metabolic cages. […] The total radioactivity of the samples was counted by means of a Tricarb scintillator (Packard).
(§8) However, increased pulmonary absorption of the compounds after nebulization of the aqueous solutions was recorded (See Table 2).

[3] = parameters: species or system male New Zealand rabbits; conditions: rabbit, in vivo, 0.25 mg/kg, 300 min
From the text: as §1, §2, §3, §4, §7, §6, §8

[4] = parameters: species or system male New Zealand rabbits; conditions: rabbit, in vivo, 0.25 mg/kg, 300 min; remark: listed apart in the source
From the text: as §1, §2, §3, §4, §5, §6

[5] = parameters: species or system male New Zealand rabbits; conditions: rabbit, in vivo, 0.25 mg/kg, 300 min; remark: listed apart in the source
From the text: as §1, §2, §3, §4, §5, §6

[6] = parameters: species or system male Sprague Dawley rats; conditions: rat, in vivo, 0.25 mg/kg, 300 min; remark: listed apart in the source
From the text: as §1, §2, §3, §4, §5, §6

| Molecule | Bioavailability (Intramuscular route = 100) [1] | Bioavailability (Intramuscular route = 100) [2] [%] | Bioavailability (Intramuscular route = 100) [3] [%] | Bioavailability (Intramuscular route = 100) [4] | Bioavailability (Intramuscular route = 100) [5] [%] | Bioavailability (Intramuscular route = 100) [6] [%] |
| --- | --- | --- | --- | --- | --- | --- |
| CCCCCCCCCCCCC/C=C/[C@@H](O)[C@H](CO[C@@H]1O[C@H](CO)[C@@H](O[C@@H]2O[C@H](CO)[C@H](O[C@@H]3O[C@H](CO)[C@H](O)[C@H](O[C@@H]4O[C@H](CO)[C@H](O)[C@H](O)[C@H]4O)[C@H]3NC(C)=O)[C@@H]3O[C@@]4(C[C@H](O)[C@@H](NC(C)=O)[C@H]([C@H](O)[C@H](O)CO)O4)C(=O)O[C@@H]23)[C@H](O)[C@H]1O)NC(=O)CCCCCCCCCCCCCCCCC [Monosialoganglioside inner ester] | 80 | 35 | 33.5 | 85 | 11.5 | 12 |
| Monosialotetrahexosylganglioside GM1 [Monosialoganglioside] | 85 | 34 | 32 | 87 | 12 | 10.5 |
